Experimental data taken from patent US9233096B2, “Method of providing an anti-ulcer treatment with extracts and isolated flavonoids from Euphorbia cuneata” (King Saud University, priority 2011, dated 2016).

Tested on: ethanol-induced gastric ulceration in male Wister rats
Test: Antiulcerogenic activity, ethanol-induced gastric ulcer model
Format: in vivo
Conditions: 100 mg/kg orally; for Antiulcerogenic activity (in words): isolated compounds compared with reference drugs at 100 mg/kg; for No. of ulcers: three doses before ethanol 50% 10 ml/kg, mean ± SD, n = 6; for Curative ratio: versus ethanol control
Description: The antiulcerogenic activity of the total alcohol extract of Euphorbia cuneata was studied using ethanol-induced ulcer model at doses of 125, 250 and 500 mg/kg. […] The antioxidant properties to the total alcohol extract and the isolated compounds were evaluated using DPPH radical scavenging activity test. The liver and kidney functions were studied.
Male Wister rats (180-200 g) were used. […] Animals were divided into groups each of 6 rats and starved for 48 h before use to ensure an empty stomach. To avoid dehydration during the period of fasting, rats were supplied with sucrose (BDH) 8% (w/v) solution in NaCl (BDH) 0.2% (w/v), which was removed one hour before experimentation. The 1st group was kept as a normal control, while the 2nd one was kept as a positive control. Groups 3rd to 5th received the alcohol extract of E. cuneata in doses of 125, 250 and 500 mg/kg orally. […] The last three groups of rats were given ranitidine, apigenin and naringin orally as reference drugs in a dose of 100 mg/kg.
Two doses were given in the first day at 08:00 and 16:00 clock; a third dose was given on the second day 1.5 h before induction of gastric ulceration. All rats except the normal control were given ethanol (Merck) 50% (v/v) (in distilled water) in a dose of 10 ml/kg orally to induce gastric ulceration. Normal control rats received equivolumes of distilled water only at the same time intervals. One hour after ethanol administration, all rats were killed by an overdose of chloroform and the stomachs were rapidly removed, opened along their greater curvature and gently rinsed under running tap water. Lesions in the glandular part of the stomach were measured under an illuminated magnifying microscope (10×). Long lesions were counted and their lengths were measured. Petechial lesions were counted, and then each five petechial lesions were taken as 1 mm of ulcer. To calculate the ulcer index (mm), the sum of the total length of long ulcers and petechial lesions in each group of rats was divided by its number. The curative ratio was determined according to the formula: […]
The results obtained were statistically analyzed using “t” test.

| Molecule | Antiulcerogenic activity (in words) | No. of ulcers | Curative ratio |
| --- | --- | --- | --- |
| Aromadendrin (2,3-dihydro-kaempferol) | as effective as naringin, apigenin and ranitidine | 3.558 ± 0.640 | 79.10 |
| O=c1cc(-c2ccc(O)cc2)oc2cc(O)cc(O)c12 [Apigenin] |  | 4.122 ± 0.432 | 75.78 |
| COc1ccc(-c2cc(=O)c3c(O)cc(O[C@@H]4O[C@H](CO[C@@H]5O[C@@H](C)[C@H](O)[C@@H](O)[C@H]5O)[C@@H](O)[C@H](O)[C@H]4O)cc3o2)cc1O [4′-O-methoxy-luteolin-7-O-rhamnoglucoside] | most effective | 2.003 ± 0.072 | 88.23 |
| CNC(=C[N+](=O)[O-])NCCSCc1ccc(CN(C)C)o1 [Rantidine] |  | 3.200 ± 0.800 | 81.20 |
| C[C@@H]1O[C@@H](O[C@H]2[C@H](Oc3cc(O)c4c(c3)O[C@H](c3ccc(O)cc3)CC4=O)O[C@H](CO)[C@@H](O)[C@@H]2O)[C@H](O)[C@H](O)[C@H]1O [Naringin] |  | 3.167 ± 0.872 | 81.40 |
